Measurements reported in ChEMBL document CHEMBL4052803, “Synthesis and anti-tumor evaluation of panaxadiol halogen-derivatives” (Bioorg Med Chem Lett, 2017).
pIC50: −log10 of the molar value.

Assays:
[1] = Antiproliferative activity against HHDPC cells after 48 hrs by MTT assay; type: cell-based; conditions: Homo sapiens
H9c2 = experiment: Antiproliferative activity against rat H9c2 cells after 48 hrs by MTT assay; type: cell-based; conditions: H9c2, 48 h
SW480 = experiment: Antiproliferative activity against human SW480 cells after 48 hrs by MTT assay; type: functional, cell-based; conditions: SW480, 48 h
GES1 = experiment: Antiproliferative activity against human GES-1 cells after 48 hrs by MTT assay; type: cell-based; conditions: GES1, 48 h
HCT-116 = experiment: Antiproliferative activity against human HCT116 cells after 48 hrs by MTT assay; type: functional, cell-based; conditions: HCT-116, 48 h
BGC-823 = experiment: Antiproliferative activity against human BGC823 cells after 48 hrs by MTT assay; type: functional, cell-based; conditions: BGC-823, 48 h

Row | pIC50 (SW480) | pIC50 (HCT-116) | pIC50 (BGC-823) | Compound | pIC50 [1] | pIC50 (H9c2) | pIC50 (GES1)
1 | 6.93 | 5.27 | 6.21 | C/C(=C\CCC(C)(C)O)[C@H]1CC[C@]2(C)[C@@H]1[C@H](OC(=O)CBr)C[C@@H]1[C@@]3(C)CC[C@H](O)C(C)(C)[C@@H]3CC[C@]12C | 4.44 | 4.31 | 4.58
2 | 4.86 | 4.90 | < 4.00 | CC(C)=CC/C=C(\C)[C@H]1CC[C@]2(C)[C@@H]1[C@H](OC(=O)CCl)C[C@@H]1[C@@]3(C)CC[C@H](OC(=O)CCl)C(C)(C)[C@@H]3CC[C@]12C | 4.05 | 3.74 | 4.00
3 | 4.52 | 4.37 | < 4.00 | CC(C)(CCC[C@@]1(C)O[C@@H]2C[C@@H]3[C@@]4(C)CC[C@H](OC(=O)CCl)C(C)(C)[C@@H]4CC[C@@]3(C)[C@]3(C)CC[C@H]1[C@@H]23)OC(=O)CCl | 4.00 | 3.55 | 3.90
4 | 4.80 | 4.37 | 4.77 | CC1(C)CCC[C@@](C)([C@H]2CC[C@]3(C)[C@@H]2[C@H](O)C[C@@H]2[C@@]4(C)CC[C@H](OC(=O)CCl)C(C)(C)[C@@H]4CC[C@]23C)O1 | 3.92 | 3.92 | 3.97
5 | 5.92 | 4.29 | 5.97 | C/C(=C\CCC(C)(C)O)[C@H]1CC[C@]2(C)[C@@H]1[C@H](OC(=O)CBr)C[C@@H]1[C@@]3(C)CC[C@H](OC(=O)CBr)C(C)(C)[C@@H]3CC[C@]12C | 4.38 | 4.44 | 4.45
6 | 4.74 | 4.24 | 4.02 | CC(C)=CC/C=C(\C)[C@H]1CC[C@]2(C)[C@@H]1[C@H](Br)C[C@@H]1[C@@]3(C)CC[C@H](OC(=O)CBr)C(C)(C)[C@@H]3CC[C@]12C | 3.80 | 3.60 | 3.92
7 | 5.26 | 5.08 | 5.37 | C/C(=C\CCC(C)(C)O)[C@H]1CC[C@]2(C)[C@@H]1[C@H](OC(=O)CCl)C[C@@H]1[C@@]3(C)CC[C@H](OC(=O)CCl)C(C)(C)[C@@H]3CC[C@]12C | 4.21 | 4.06 | 3.96
8 | 4.82 | 5.41 | 4.81 | CC1(C)CCC[C@](C)([C@H]2CC[C@]3(C)[C@@H]2[C@H](OC(=O)CBr)C[C@@H]2[C@@]4(C)CC[C@H](OC(=O)CBr)C(C)(C)[C@@H]4CC[C@]23C)O1 | 3.85 | 3.80 | 4.00
9 | < 4.00 | < 4.00 | < 4.00 | CC1(C)CCC[C@](C)([C@H]2CC[C@]3(C)[C@@H]2[C@H](OC(=O)CCl)C[C@@H]2[C@@]4(C)CC[C@H](OC(=O)CCl)C(C)(C)[C@@H]4CC[C@]23C)O1 | 3.65 | < 3.30 | 3.74
10 | 4.85 |  | 4.83 | CC1(C)CCC[C@@](C)([C@H]2CC[C@]3(C)[C@@H]2[C@H](O)C[C@@H]2[C@@]4(C)CC[C@H](OC(=O)CBr)C(C)(C)[C@@H]4CC[C@]23C)O1 | 3.93 | 3.92 | 3.94
11 | 4.50 | 5.15 | 4.09 | C/C(=C\CCC(C)(C)OC(=O)CBr)[C@H]1CC[C@]2(C)C1=CC[C@@H]1[C@@]3(C)CC[C@H](OC(=O)CBr)C(C)(C)[C@@H]3CC[C@]12C | 3.70 | 3.79 | 3.85
12 | 4.40 | 5.45 |  | CC(C)=CC/C=C(\C)[C@H]1CC[C@]2(C)C1=CC[C@@H]1[C@@]3(C)CC[C@H](OC(=O)CBr)C(C)(C)[C@@H]3CC[C@]12C | 4.04 | 3.88 | 4.11

Row | Compound | pIC50 (SW480) | pIC50 (HCT-116) | pIC50 (BGC-823) | pIC50 [1] | pIC50 (H9c2) | pIC50 (GES1)
13 | CC1(C)CCC[C@@](C)([C@H]2CC[C@]3(C)[C@@H]2[C@H](O)C[C@@H]2[C@@]4(C)CC[C@H](O)C(C)(C)[C@@H]4CC[C@]23C)O1 | 4.13 | < 4.00 | 4.10 | 3.85 | 3.67 | 3.93
